Measurements: ChEMBL document CHEMBL3603790, “2- and 3-Fluoro-3-deazaneplanocins, 2-fluoro-3-deazaaristeromycins, and 3-methyl-3-deazaneplanocin: Synthesis and antiviral properties” (Bioorg Med Chem, 2015)
The source made the active and inactive calls. The calls are words filed in the database; no cut-off is given here.

Columns and labels:
Yellow fever virus = assay: Antiviral activity against Yellow fever virus infected in African green monkey Vero cells after 3 days by neutral red dye-based plaque reduction assay; type: functional, organism-based; conditions: 72 h
Rift Valley fever virus = assay: Antiviral activity against Rift Valley fever virus infected in African green monkey Vero 76 cells after 3 days by neutral red dye-based plaque reduction assay; type: functional, organism-based
Tacaribe virus = assay: Antiviral activity against Tacaribe virus infected in African green monkey Vero 76 cells after 3 days by neutral red dye-based plaque reduction assay; type: functional, organism-based; conditions: Mammarenavirus tacaribeense
Dengue virus = assay: Antiviral activity against Dengue virus infected in African green monkey Vero cells after 3 days by neutral red dye-based plaque reduction assay; type: functional, organism-based
Measles morbillivirus = assay: Antiviral activity against Measles virus infected in African green monkey CV1 cells after 3 days by neutral red dye-based plaque reduction assay; type: functional, organism-based; conditions: CV-1, 72 h
[1] = (§1) Cytotoxicity against African green monkey Vero cells; type: cell-based; conditions: chlorocebus sabaeus, Vero cells
[2] = Cytotoxicity against African green monkey Vero 76 cells; type: cell-based; conditions: chlorocebus sabaeus; for Activity: vero 76
MDCK = assay: (§2) Cytotoxicity against MDCK cells; type: cell-based, Canis lupus familiaris; conditions: dog, mdck
[3] = Cytotoxicity against African green monkey CV1 cells; type: cell-based, CV-1; conditions: chlorocebus aethiops
[4] = Selectivity index, ratio of CC50 for African green monkey Vero cells to IC50 for Yellow fever virus; type: functional
[5] = Selectivity index, ratio of CC50 for African green monkey CV1 cells to IC50 for Measles virus; type: functional, CV-1
West Nile virus = assay: Antiviral activity against WNV infected in African green monkey Vero 76 cells after 3 days by neutral red dye-based plaque reduction assay; type: functional, organism-based
Cowpox virus = assay: Antiviral activity against Cowpox virus infected in HFF after 3 days by neutral red dye-based plaque reduction assay; type: functional, organism-based
Vaccinia virus = assay: Antiviral activity against Vaccinia virus infected in HEL cells after 3 days by neutral red dye-based plaque reduction assay; type: functional, organism-based; conditions: Orthopoxvirus vaccinia
[6] = test system: Respiratory syncytial virus; assay: Antiviral activity against Respiratory syncytial virus infected in human HeLa cells after 3 days by neutral red dye-based plaque reduction assay; type: functional, organism-based
[7] = test system: Respiratory syncytial virus; assay: Antiviral activity against Respiratory syncytial virus infected in monkey MA104 cells after 3 days by neutral red dye-based plaque reduction assay; type: functional, organism-based
Influenza A virus [8] = assay: Antiviral activity against Influenza A virus H1N1 infected in MDCK cells after 3 days by neutral red dye-based plaque reduction assay; type: functional, organism-based
[9] = test system: Venezuelan equine encephalitis virus; assay: Antiviral activity against Venezuelan equine encephalitis virus infected in African green monkey Vero cells after 3 days by neutral red dye-based plaque reduction assay; type: functional, organism-based
SARS-CoV = assay: Antiviral activity against SARS coronavirus infected in African green monkey Vero E6 cells after 3 days by neutral red dye-based plaque reduction assay; type: functional, organism-based; conditions: Severe acute respiratory syndrome-related coronavirus
Hepatitis C virus = assay: Antiviral activity against Hepatitis C virus infected in human Ava5 cells after 3 days by neutral red dye-based plaque reduction assay; type: functional, organism-based; conditions: Hepacivirus hominis
Human alphaherpesvirus 1 = assay: Antiviral activity against Human herpesvirus 1 infected in HEL cells after 3 days by neutral red dye-based plaque reduction assay; type: functional, organism-based
Human alphaherpesvirus 2 = assay: Antiviral activity against Human herpesvirus 2 infected in HEL cells after 3 days by neutral red dye-based plaque reduction assay; type: functional, organism-based
Enterovirus C = assay: Antiviral activity against Poliovirus infected in monkey LLC-MK2 cells after 3 days by neutral red dye-based plaque reduction assay; type: functional, organism-based
Chikungunya virus = assay: Antiviral activity against Chikungunya virus infected in African green monkey Vero 76 cells after 3 days by neutral red dye-based plaque reduction assay; type: functional, cell-based
Enterovirus A71 = assay: Antiviral activity against Enterovirus 71 infected in monkey LLC-MK2 cells after 3 days by neutral red dye-based plaque reduction assay; type: functional, organism-based
Cytomegalovirus = assay: Antiviral activity against Cytomegalovirus infected in HEL cells after 3 days by neutral red dye-based plaque reduction assay; type: functional, organism-based
Pichinde virus = assay: Antiviral activity against Pichinde virus infected in African green monkey Vero cells after 3 days by neutral red dye-based plaque reduction assay; type: functional, organism-based
Human papillomavirus = assay: Antiviral activity against Human papillomavirus infected in HEK293 cells after 3 days by neutral red dye-based plaque reduction assay; type: functional, organism-based
HEL = assay: Cytotoxicity against HEL cells; type: cell-based; conditions: human
[10] = Cytotoxicity against monkey MA104 cells; type: cell-based, Macaca mulatta; conditions: rhesus monkey
[11] = Cytotoxicity against human Ava5 cells; type: cell-based
LLC-MK2 = assay: Cytotoxicity against monkey LLC-MK2 cells; type: cell-based, Macaca mulatta; conditions: rhesus monkey
HEK293 = assay: Cytotoxicity against HEK293 cells; type: cell-based; conditions: human
[12] = Inhibition of rabbit erythrocytic AdoHcy hydrolase using AdoHcy as substrate assessed as formation of L-homocysteine preincubated for 5 mins followed by substrate addition measured after 1 hr by thiol quantitation reagent-based assay; set-up: species or system Oryctolagus cuniculus
HeLa = assay: Cytotoxicity against human HeLa cells; type: cell-based
[13] = Cytotoxicity against African green monkey Vero E6 cells; type: cell-based; conditions: chlorocebus sabaeus
Vero = assay: as §1; type: cell-based; conditions: chlorocebus sabaeus, vero
Human betaherpesvirus 5 = assay: Antiviral activity against HCMV infected in HFF after 3 days by neutral red dye-based plaque reduction assay; type: functional, organism-based; conditions: Human betaherpesvirus 5, 72 h
Influenza A virus [14] = assay: Antiviral activity against Influenza A virus H5N1 infected in MDCK cells after 3 days by neutral red dye-based plaque reduction assay; type: functional, organism-based; conditions: 72 h
Influenza B virus = assay: Antiviral activity against Influenza B virus infected in MDCK cells after 3 days by neutral red dye-based plaque reduction assay; type: functional, organism-based; conditions: 72 h
[15] = Cytotoxicity against African green monkey Vero 76 cells relative to control; type: cell-based; conditions: chlorocebus sabaeus
[16] = Cytotoxicity against African green monkey Vero cells relative to control; type: cell-based; conditions: chlorocebus sabaeus
[17] = Cytotoxicity against HFF; type: cell-based; conditions: human, HFF cells
[18] = as §2; type: cell-based, Canis lupus familiaris; conditions: dog, MDCK cells
[19] = Cytotoxicity against MDCK cells relative to control; type: cell-based, Canis lupus familiaris; conditions: dog
[20] = Selectivity index, ratio of CC50 for African green monkey Vero 76 cells to IC50 for Rift Valley fever virus; type: functional
[21] = Selectivity index, ratio of CC50 for African green monkey Vero 76 cells to IC50 for Tacaribe virus; type: functional
[22] = Selectivity index, ratio of CC50 for African green monkey Vero cells to IC50 for Dengue virus; type: functional
[23] = Selectivity index, ratio of CC50 for HFF to IC50 for HCMV; type: functional
[24] = Selectivity index, ratio of CC50 for MDCK cells to IC50 for Influenza A virus H5N1 virus; type: functional
[25] = Selectivity index, ratio of CC50 for MDCK cells to IC50 for Influenza B virus; type: functional
Enterovirus = assay: Antiviral activity against Rhinovirus infected in human HeLa Ohio-1 cells after 3 days by neutral red dye-based plaque reduction assay; type: functional, organism-based
unidentified adenovirus = assay: Antiviral activity against Adenovirus infected in human A549 cells after 3 days by neutral red dye-based plaque reduction assay; type: functional, organism-based
Influenza A virus [26] = assay: Antiviral activity against Influenza A virus H3N2 infected in MDCK cells after 3 days by neutral red dye-based plaque reduction assay; type: functional, organism-based
MA104 = assay: Antiviral activity against Parainfluenza virus infected in monkey MA104 cells after 3 days by neutral red dye-based plaque reduction assay; type: functional, cell-based; conditions: Paramyxoviridae
[27] = Cytotoxicity against human HeLa Ohio-1 cells; type: cell-based
A549 = assay: Cytotoxicity against human A549 cells; type: cell-based

Nc1nc(F)cc2c1ncn2[C@@H]1C[C@H](O)[C@@H](O)[C@H]1O
IC50 (Yellow fever virus): 15 µM | Activity (Rift Valley fever virus): inactive | Activity (Tacaribe virus): inactive | Activity (Dengue virus): inactive | IC50 (Measles morbillivirus): 30.2 µM | CC50 [1]: > 100 µM | Activity [2]: Non-toxic | Activity (MDCK): Non-toxic | CC50 [3]: > 100 µM | Ratio CC50/IC50 [4]: >6.7 | Ratio CC50/IC50 [5]: >3 | Activity (West Nile virus): inactive | Activity (Cowpox virus): inactive | Activity (Vaccinia virus): inactive | Activity [6]: inactive | Activity [7]: inactive | Activity (Influenza A virus [8]): inactive | Activity [9]: inactive | Activity (SARS-CoV): inactive | Activity (Hepatitis C virus): inactive | Activity (Human alphaherpesvirus 1): inactive | Activity (Human alphaherpesvirus 2): inactive | Activity (Enterovirus C): inactive | Activity (Chikungunya virus): inactive | Activity (Enterovirus A71): inactive | Activity (Cytomegalovirus): inactive | Activity (Pichinde virus): inactive | Activity (Human papillomavirus): inactive | Activity (HEL): Non-toxic | Activity [10]: Non-toxic | Activity [11]: Non-toxic | Activity (LLC-MK2): Non-toxic | Activity (HEK293): Non-toxic | IC50 [12]: 1000 nM | Activity (HeLa): Non-toxic | Activity [13]: Non-toxic

Nc1nc(F)cc2c1ncn2[C@@H]1C[C@H](CCO)[C@@H](O)[C@H]1O
Activity (Rift Valley fever virus): inactive | Activity (Tacaribe virus): inactive | Activity (Dengue virus): inactive | IC50 (Measles morbillivirus): 162 µM | Activity (Vero): Non-toxic | Activity [2]: Non-toxic | CC50 [3]: > 338 µM | Ratio CC50/IC50 [5]: >2.1 | Activity (West Nile virus): inactive | Activity (Vaccinia virus): inactive | Activity [6]: inactive | Activity [7]: inactive | Activity [9]: inactive | Activity (Hepatitis C virus): inactive | Activity (HEL): Non-toxic | Activity [10]: Non-toxic | Activity [11]: Non-toxic | IC50 [12]: 3750 nM | Activity (HeLa): Non-toxic

Nc1ncc(F)c2c1ncn2[C@@H]1C=C(CCO)[C@@H](O)[C@H]1O
IC50 (Yellow fever virus): 1.5 µM | IC50 (Rift Valley fever virus; 72 h): 1300 nM | IC50 (Tacaribe virus; 72 h): < 340 nM | IC50 (Dengue virus; 72 h): 15 µM | IC50 (Human betaherpesvirus 5): 5.1 µM | IC50 (Influenza A virus [14]): 139 µM | IC50 (Influenza B virus): 1000 nM | CC50 [1]: > 340 µM | CC50 ([2]; Vero 76 cells): 3.4 µM | CC50 [15]: 190 µM | CC50 [16]: 109 µM | CC50 [17]: > 300 µM | CC50 [18]: > 340 µM | CC50 [19]: > 340 µM | Ratio CC50/IC50 [4]: >240 | Ratio CC50/IC50 [20]: 2.6 | Ratio CC50/IC50 [21]: >560 | Ratio CC50/IC50 [22]: 7.3 | Ratio CC50/IC50 [23]: 759 | Ratio CC50/IC50 [24]: >2.4 | Ratio CC50/IC50 [25]: >340 | Activity (West Nile virus): inactive | Activity (Cowpox virus): inactive | Activity (Vaccinia virus): inactive | Activity (Enterovirus): inactive | Activity (unidentified adenovirus): inactive | Activity [6]: inactive | Activity [7]: inactive | Activity (Influenza A virus [8]): inactive | Activity (Influenza A virus [26]): inactive | Activity [9]: inactive | Activity (MA104): inactive | Activity (SARS-CoV): inactive | Activity (HEL): Non-toxic | Activity [27]: Non-toxic | Activity (A549): Non-toxic | Activity [10]: Non-toxic | IC50 [12]: 145 nM | Activity (HeLa): Non-toxic | Activity [13]: Non-toxic
